# Measured values taken from patent US20250163016A1, “PYRIDINE DERIVATIVE, PREPARATION METHOD THEREFOR AND USE THEREOF” (CHENGDU EASTON BIOPHARMACEUTICALS CO., LTD., priority 2022, published 2025).
# Columns and labels:
# [1] = test system: Kasumi-1 cell subcutaneous heterograft tumor; experiment: In-vivo efficacy in Kasumi-1 cell subcutaneous heterograft tumor model; conditions: for weight of the mice after administration / tolerance of the tested animals: Kasumi-1 xenograft mice; for weight of the mice after administration: FIG. 3; for tolerance of the tested animals: qd p.o. 20 days; for TGI: Kasumi-1 xenograft, qd, p.o., 20 days
# Method: • RPMI 1640 culture medium containing 20% fetal bovine serum (FBS), 37° C., 5% CO2.
# • Solvent: 0.5% methylcellulose aqueous solution; • Tested drug: compounds 16 and 36.
# CB17 SCID mice, female, 6-8 weeks, weight about 18-22 grams, and each mouse was subcutaneously inoculated with 0.1 mL (1×10^7 cells+matrigel) of Kasumi-1 cells on the right side. When an average volume of tumors reached 100-200 cubic millimeters, group administration was performed, see the table below (Table 12) for administration dosages and methods. The tumor volume was measured twice a week, the weights of the mice as well as lengths and widths of tumors were recorded in each time of measurement, and the tumor volume=length×width×width/2 mm^3. When the average tumor volume of a solvent group grew to 3000 cubic millimeters or above, administration was ended, each group of mice was killed and dissected to take out tumor lumps, the tumor weight of each mouse was weighed and the tumor volume was measured, and an average tumor volume difference between a tested compound group and the solvent group was obtained via comparison. The tumor suppression effects of the compounds were evaluated with TGI (%), which could reflect a tumor growth inhibition rate.
# Calculation of TGI (%):TGI (%)=[1−(current average tumor volume of compounds−average tumor volume at the beginning of compounds)/(current average tumor volume of solvent group−average tumor volume at the beginning of solvent group)]×100%
# [2] = biological target: T1, LSD1 (Homo sapiens, UniProt O60341); experiment: LSD1 activity test (HTRF); assay type: biochemical; conditions: H3(1-21)K4 me1-biotin substrate, read-out: IC50, inhibitory activity on LSD1
# T1 construct: purchased Active Motif 31432
# Method: In this test, a homogeneous time resolved fluorescence (HTRF) technology was utilized, and the inhibitory activity of compounds on LSD1 was detected by adopting a two-step method. The first step was to incubate LSD1, compounds of different concentrations, and a biotin-labeled methylated polypeptide substrate (H3(1-21)K4 me1-biotin) at the room temperature for fixed time.
# A corresponding solution with a 1000-fold final concentration was formed by dilution in a 384-well Source plate, and then Echo550 was used for transferring 10 nL to a 384-well reaction plate for being tested.
# An inhibition percentage was calculated using a maximum value, a minimum value, and a signal value (maximum value: fluorescence intensity of 5 μL of 2× enzyme solution+5 μL of 2× substrate mixed solution+10 nL of 100% DMSO+10 μL of detection solution; minimum value: fluorescence intensity of 5 μL of 1× reaction solution+5 μL of 2× substrate mixed solution+10 nL of 100% DMSO+10 μL of detection solution; and signal value: fluorescence intensity of 5 μL of 2× enzyme solution+5 μL of 2× substrate mixed solution+10 nL of diluted compound to be tested+10 μL of detection solution), and a calculation formula was as follows: […]
# Using a logarithm of the concentration as an X axis and the percentage inhibition rate as a Y axis, a dose-response curve was fitted using a formula log(inhibitor) vs. response-Variable slope (Four parameters) of analysis software Graphpad Prism 5 to obtain the IC50 value of each compound on the enzyme activity.
# [3] = biological target: T2, hERG ion channel (Homo sapiens, UniProt Q12809); experiment: In-vitro hERG inhibitory activity (whole cell patch clamp, HEK293 cells); assay type: cell-based; conditions: HEK293 cells stably expressing hERG channels, read-out: IC50 on hERG current
# T2 construct: expressed in transfected cells; host or cells: HEK293
# T2 sequence (Q12809 whole entry): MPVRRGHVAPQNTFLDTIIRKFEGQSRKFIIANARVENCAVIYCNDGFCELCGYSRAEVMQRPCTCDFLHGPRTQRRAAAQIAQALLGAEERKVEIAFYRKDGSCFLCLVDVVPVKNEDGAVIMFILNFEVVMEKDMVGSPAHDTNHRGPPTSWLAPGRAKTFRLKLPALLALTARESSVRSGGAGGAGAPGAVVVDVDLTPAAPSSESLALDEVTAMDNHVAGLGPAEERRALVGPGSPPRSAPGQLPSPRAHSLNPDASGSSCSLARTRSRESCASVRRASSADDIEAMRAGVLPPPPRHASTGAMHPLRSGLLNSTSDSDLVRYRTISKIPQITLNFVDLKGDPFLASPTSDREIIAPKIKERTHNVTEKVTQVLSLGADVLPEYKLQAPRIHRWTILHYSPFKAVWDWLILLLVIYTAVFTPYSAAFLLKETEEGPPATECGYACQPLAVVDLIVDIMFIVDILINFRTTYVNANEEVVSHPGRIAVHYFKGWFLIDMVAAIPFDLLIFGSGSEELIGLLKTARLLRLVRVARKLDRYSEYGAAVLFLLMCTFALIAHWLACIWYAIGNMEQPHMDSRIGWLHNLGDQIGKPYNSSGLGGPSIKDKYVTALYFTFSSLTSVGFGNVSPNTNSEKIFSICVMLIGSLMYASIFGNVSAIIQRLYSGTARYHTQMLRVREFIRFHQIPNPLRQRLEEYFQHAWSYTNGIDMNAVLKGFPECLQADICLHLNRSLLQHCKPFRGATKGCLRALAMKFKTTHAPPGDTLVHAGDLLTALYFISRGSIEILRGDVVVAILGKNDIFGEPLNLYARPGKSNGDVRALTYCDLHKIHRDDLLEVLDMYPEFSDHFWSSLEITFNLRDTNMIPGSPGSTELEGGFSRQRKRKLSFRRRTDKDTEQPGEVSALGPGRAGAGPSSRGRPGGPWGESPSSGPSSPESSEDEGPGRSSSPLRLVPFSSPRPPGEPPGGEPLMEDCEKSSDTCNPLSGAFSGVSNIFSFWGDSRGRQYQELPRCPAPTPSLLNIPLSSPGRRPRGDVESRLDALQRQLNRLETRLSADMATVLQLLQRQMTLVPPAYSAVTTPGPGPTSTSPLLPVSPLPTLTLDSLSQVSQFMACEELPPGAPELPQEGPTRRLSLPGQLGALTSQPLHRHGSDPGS
# Method: A whole cell sheet technology was used to detect the blocking effects of compounds on hERG channels on HEK293 cells stably expressing hERG channels, and a median inhibitory concentration IC50 of the compound was determined. As part of cardiac safety evaluation, its safety in-vitro screening for cardiac toxicity was preliminarily evaluated.
# • HEK293 cells stably expressing hEGR ion channels
# Electrodes were drawn using PC-10 (Narishige, Japan). The whole cell patch clamp was used for recording, and noise was filtered using one fifth of a sampling frequency. The cells were clamped at −80 mV, then depolarized to 40 mV using square waves lasting for 4 seconds, and then hyperpolarized to −40 mV using square waves lasting for 2 seconds to obtain an hERG tail current. This procedure was repeated every 20 seconds. The hERG tail current was a pure hERG current. A maximum current triggered by the second square wave was detected, after the maximum current was stable, the compounds were tested through perfusion, and after reaction was stable, a blocking intensity was calculated.
Structure (SMILES),weight of the mice after administration [1],tolerance of the tested animals [1],TGI ([1]; 3.5 mg/Kg) [%],TGI ([1]; 5 mg/Kg) [%],IC50 [2] [nM],IC50 [3] [nM]
"CC(C)(O)Cn1ncc2cc(-c3c(C#N)cc(N4CCC(N)CC4)nc3-c3ccc(C#N)c(F)c3)c(F)cc21 [Compound 16, 6-(4-aminopiperid-1-yl)-2-(4-cyano-3-fluorophenyl)-3-(6-fluoro-1-(2-hydroxyl-2-methylpropyl)-1H-indazol-5-yl)isonicotinonitrile]",does not decrease,good tolerance,78.28,86.13,0.23,> 10000
"CC(C)(O)Cn1nc(F)c2cc(-c3c(C#N)cc(N4CCC(N)CC4)nc3-c3ccc(C#N)c(F)c3)c(F)cc21 [Compound 36, 6-(4-aminopiperid-1-yl)-2-(4-cyano-3-fluorophenyl)-3-(3,6-difluoro-1-(2-hydroxyl-2-methylpropyl)-1H-indazol-5-yl)isonicotinonitrile]",does not decrease,good tolerance,–,84.87,0.45,–
